From US8399465B2, “Compounds with two fused bicyclic heteroaryl moieties as modulators of leukotriene A4 hydrolase” (Janssen Pharmaceutica NV, priority 2009, dated 2013)
Counter-ions that a name gives are not always drawn.

Tests used:
[1] = biological target: T1, recombinant human LTA4 hydrolase (rhLTA4H) (Homo sapiens, UniProt P09960); assay: Recombinant human LTA4 hydrolase assay for LTA4 hydrolase inhibitor activity; type: biochemical; details: rhLTA4H, LTB4 by immunoassay; single determination or average of two or more; mark after value = form tested: ′ free base, ″ hydrochloride, ^ formate; read-out: IC50
T1 construct: made in house; host or cells: Spodoptera frugiperda (Sf-9) cells, baculovirus (pFastBac1)
T1 sequence (P09960 1-611): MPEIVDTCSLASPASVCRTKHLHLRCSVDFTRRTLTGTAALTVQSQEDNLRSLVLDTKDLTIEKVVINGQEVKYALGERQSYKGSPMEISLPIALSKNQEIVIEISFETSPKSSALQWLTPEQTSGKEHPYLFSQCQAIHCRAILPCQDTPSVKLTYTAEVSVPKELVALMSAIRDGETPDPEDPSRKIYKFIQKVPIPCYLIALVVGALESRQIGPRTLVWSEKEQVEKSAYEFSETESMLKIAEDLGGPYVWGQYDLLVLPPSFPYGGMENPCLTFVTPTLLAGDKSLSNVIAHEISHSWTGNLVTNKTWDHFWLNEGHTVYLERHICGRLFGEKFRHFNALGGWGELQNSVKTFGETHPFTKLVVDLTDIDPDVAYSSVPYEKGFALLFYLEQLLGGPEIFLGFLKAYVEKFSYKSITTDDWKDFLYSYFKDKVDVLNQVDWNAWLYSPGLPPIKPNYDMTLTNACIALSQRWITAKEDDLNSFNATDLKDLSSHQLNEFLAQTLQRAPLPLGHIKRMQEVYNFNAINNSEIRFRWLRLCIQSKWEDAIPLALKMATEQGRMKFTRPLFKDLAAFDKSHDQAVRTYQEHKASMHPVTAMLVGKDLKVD
Procedure, shortened: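 Baculovirus/Sf-9-expressed human LTA4H (10 ng) was preincubated 10 min at rt with compound in assay buffer (10% DMSO in compound dilution), then reacted 30 min at rt with LTA4 free acid made from its methyl ester. LTB4 produced was measured by ELISA after dilution; IC50 from non-linear regression, single or averaged determinations.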

[2] = system: LTB4 production in murine blood (LTA4H); assay: LTB4 production by calcium ionophore-stimulated murine blood for LTA4H inhibitor activity; type: cell-based, CD-1 mice; details: Mus musculus; murine blood diluted 1 in 15, A23187 stimulated; single determination or average; mark after value = form tested: ′ free base, ″ hydrochloride, ^ formate; read-out: IC50
Procedure, shortened: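 Heparinized blood from CD-1 mice was preincubated with compound for 15 min at 37° C, then stimulated with calcium ionophore A23187 (final 7 μg/mL) for 30 min. Centrifugation stopped the reaction, and LTB4 in the supernatant was measured by enzyme immunoassay. Values are single determinations or means of two or more.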

| Structure (SMILES) | IC50 [1] [µM] | IC50 [2] [µM] |
| --- | --- | --- |
| CS(=O)(=O)N1CCCN(Cc2coc3cc(Oc4nc5ncccc5s4)ccc23)CC1 [Example 247, 2-[3-(4-Methanesulfonyl-[1,4]diazepan-1-ylmethyl)-benzofuran-6-yloxy]-thiazolo[4,5-b]pyridine] | 0.009 | 0.024 |
| O=C(O)C1CCN(Cc2coc3cc(Oc4nc5ncccc5s4)ccc23)CC1 [Example 249, 1-[6-(Thiazolo[4,5-b]pyridin-2-yloxy)-benzofuran-3-ylmethyl]-piperidine-4-carboxylic acid] | 0.012 | 0.054 |
| CC(=O)NC1CCN(Cc2coc3cc(Oc4nc5ncc(C)cc5s4)ccc23)CC1 [Example 251, N-{1-[6-(6-Methyl-thiazolo[4,5-b]pyridin-2-yloxy)-benzofuran-3-ylmethyl]-piperidin-4-yl}-acetamide formate] | 0.027 | 0.22 |
| CC(=O)NC1CCN(Cc2coc3cc(Oc4nc5nccc(C)c5s4)ccc23)CC1 [Example 252, N-{1-[6-(7-Methyl-thiazolo[4,5-b]pyridin-2-yloxy)-benzofuran-3-ylmethyl]-piperidin-4-yl}-acetamide formate] | 0.024 | 0.048 |
| CC(=O)NC1CCN(Cc2coc3cc(Oc4nc5nccnc5s4)ccc23)CC1 [Example 253, N-{1-[6-(Thiazolo[4,5-b]pyrazin-2-yloxy)-benzofuran-3-ylmethyl]-piperidin-4-yl}-acetamide formate] | 0.039 | 0.091 |
| CC(=O)NC1CCN(Cc2coc3cc(Oc4nc5ncc(F)cc5s4)ccc23)CC1 [Example 255, N-{1-[6-(6-Fluoro-thiazolo[4,5-b]pyridin-2-yloxy)-benzofuran-3-ylmethyl]-piperidin-4-yl}-acetamide formate] | 0.031 | 0.072 |
| CC(=O)N1CCN(Cc2cc3cc(Oc4nc5ncccc5s4)ccc3o2)CC1 [Example 259, 1-{4-[5-(Thiazolo[4,5-b]pyridin-2-yloxy)-benzofuran-2-ylmethyl]-piperazin-1-yl}ethanone formate] | 0.005 | 0.074 |
| c1cnc2nc(Oc3ccc4c(CN5CCC6CCCCC6C5)coc4c3)sc2c1 (stereo not shown) [Example 266, 2-[6-(Thiazolo[4,5-b]pyridin-2-yloxy)-benzofuran-3-ylmethyl]-decahydro-isoquinoline formate] | 0.002 | 0.1 |
| c1cnc2nc(Oc3ccc4c(CN5CCCC6CCCCC65)coc4c3)sc2c1 (stereo not shown) [Example 267, 1-[6-(Thiazolo[4,5-b]pyridin-2-yloxy)-benzofuran-3-ylmethyl]-decahydro-quinoline formate] | 0.009 | 0.044 |
| OC1CCN(Cc2coc3cc(Oc4nc5ncccc5s4)ccc23)CC1 [Example 268, 1-[6-(Thiazolo[4,5-b]pyridin-2-yloxy)-benzofuran-3-ylmethyl]-piperidin-4-ol] | 0.008 | 0.15 |
| FC1CCN(Cc2coc3cc(Oc4nc5ncccc5s4)ccc23)CC1 [Example 270, 2-[3-(4-Fluoro-piperidin-1-ylmethyl)-benzofuran-6-yloxy]-thiazolo[4,5-b]pyridine formate] | 0.026 | 0.1 |
| COC1CCN(Cc2coc3cc(Oc4nc5ncccc5s4)ccc23)CC1 [Example 271, 2-[3-(4-Methoxy-piperidin-1-ylmethyl)-benzofuran-6-yloxy]-thiazolo[4,5-b]pyridine formate] | 0.005 | 0.079 |
| O=C1CCCCN1C1CCN(Cc2coc3cc(Oc4nc5ncccc5s4)ccc23)CC1 [Example 272, 1′-[6-(Thiazolo[4,5-b]pyridin-2-yloxy)-benzofuran-3-ylmethyl]-[1,4′]bipiperidinyl-2-one formate] | 0.005 | 0.015 |
| OC1(c2ccccc2)CCN(Cc2coc3cc(Oc4nc5ncccc5s4)ccc23)CC1 [Example 275, 4-Phenyl-1-[6-(thiazolo[4,5-b]pyridin-2-yloxy)-benzofuran-3-ylmethyl]-piperidin-4-ol] | 0.002 | 0.034 |
| O=C(C1CC1)N1CCN(Cc2coc3cc(Oc4nc5ncccc5s4)ccc23)CC1 [Example 276, Cyclopropyl-{4-[6-(thiazolo[4,5-b]pyridin-2-yloxy)-benzofuran-3-ylmethyl]-piperazin-1-yl}-methanone formate] | 0.003 | 0.077 |
| c1cnc2nc(Oc3ccc4c(CN5CCN(C6CC6)CC5)coc4c3)sc2c1 [Example 277, 2-[3-(4-Cyclopropyl-piperazin-1-ylmethyl)-benzofuran-6-yloxy]-thiazolo[4,5-b]pyridine] | 0.012 | 0.13 |
| c1ccc(CC2CCN(Cc3coc4cc(Oc5nc6ncccc6s5)ccc34)CC2)cc1 [Example 279, 2-[3-(4-Benzyl-piperidin-1-ylmethyl)-benzofuran-6-yloxy]-thiazolo[4,5-b]pyridine] | 0.044 | 0.13 |
| c1ccc(C2CCN(Cc3coc4cc(Oc5nc6ncccc6s5)ccc34)CC2)cc1 [Example 280, 2-[3-(4-Phenyl-piperidin-1-ylmethyl)-benzofuran-6-yloxy]-thiazolo[4,5-b]pyridine formate] | 0.01 | 0.13 |
| CC1CC(C)CN(Cc2coc3cc(Oc4nc5ncccc5s4)ccc23)C1 (stereo not shown) [Example 281, 2-[3-(3,5-Dimethyl-piperidin-1-ylmethyl)-benzofuran-6-yloxy]-thiazolo[4,5-b]pyridine formate] | 0.028 | 0.077 |
| CN(C)C1CCN(Cc2coc3cc(Oc4nc5ncccc5s4)ccc23)CC1 [Example 282, Dimethyl-{1-[6-(thiazolo[4,5-b]pyridin-2-yloxy)-benzofuran-3-ylmethyl]-piperidin-4-yl}-amine formate] | 0.017 | 0.072 |
| c1cnc2nc(Oc3ccc4c(CN5CCC(N6CCCC6)CC5)coc4c3)sc2c1 [Example 283, 2-[3-(4-Pyrrolidin-1-yl-piperidin-1-ylmethyl)-benzofuran-6-yloxy]-thiazolo[4,5-b]pyridine formate] | 0.035 | 0.13 |
| c1cnc2nc(Oc3ccc4c(CN5CCC(N6CCCCC6)CC5)coc4c3)sc2c1 [Example 284, 1′-[6-(Thiazolo[4,5-b]pyridin-2-yloxy)-benzofuran-3-ylmethyl]-[1,4′]bipiperidinyl formate] | 0.024 | 0.16 |
| c1cnc2nc(Oc3ccc4c(CN5CCC(N6CCOCC6)CC5)coc4c3)sc2c1 [Example 285, 2-[3-(4-Morpholin-4-yl-piperidin-1-ylmethyl)-benzofuran-6-yloxy]-thiazolo[4,5-b]pyridine formate] | 0.016 | 0.05 |
| CC1CCN(Cc2coc3cc(Oc4nc5ncccc5s4)ccc23)CC1 [Example 286, 2-[3-(4-Methyl-piperidin-1-ylmethyl)-benzofuran-6-yloxy]-thiazolo[4,5-b]pyridine formate] | 0.001 | 0.055 |
| c1ccc(N2CCN(Cc3coc4cc(Oc5nc6ncccc6s5)ccc34)CC2)cc1 [Example 287, 2-[3-(4-Phenyl-piperazin-1-ylmethyl)-benzofuran-6-yloxy]-thiazolo[4,5-b]pyridine formate] | 0.026 | 0.24 |
| c1ccc(N2CCN(Cc3coc4cc(Oc5nc6ncccc6s5)ccc34)CC2)nc1 [Example 288, 2-[3-(4-Pyridin-2-yl-piperazin-1-ylmethyl)-benzofuran-6-yloxy]-thiazolo[4,5-b]pyridine formate] | 0.019 | 0.17 |
| c1cnc2nc(Oc3ccc4c(CN5CCN(c6ccncc6)CC5)coc4c3)sc2c1 [Example 289, 2-[3-(4-Pyridin-4-yl-piperazin-1-ylmethyl)-benzofuran-6-yloxy]-thiazolo[4,5-b]pyridine formate] | 0.004 | 0.04 |
| COc1ccc(N2CCN(Cc3coc4cc(Oc5nc6ncccc6s5)ccc34)CC2)cc1 [Example 290, 2-{3-[4-(4-Methoxy-phenyl)-piperazin-1-ylmethyl]-benzofuran-6-yloxy}-thiazolo[4,5-b]pyridine formate] | 0.04 | 0.17 |
| c1ccc(CCN2CCN(Cc3coc4cc(Oc5nc6ncccc6s5)ccc34)CC2)cc1 [Example 291, 2-[3-(4-Phenethyl-piperazin-1-ylmethyl)-benzofuran-6-yloxy]-thiazolo[4,5-b]pyridine formate] | 0.014 | 0.13 |
